Values quoted from earlier work as cited in US6406894B1, “Process for preparing polyvalent and physiologically degradable carbohydrate-containing polymers by enzymatic glycosylation reactions and the use thereof for preparing carbohydrate building blocks” (Glycorex AB, priority 1992, dated 2002).

Target: T1, E-selectin-IgG (Homo sapiens, UniProt P16581)
T1 construct: soluble fusion proteins formed between the extracytoplasmic domain of E- or P-selectin together with the constant region of a human immunoglobulin of subclass IgG1; made in house; host or cells: COS-7 cells, transient transfection with DEAE-dextran; the culture supernatant was used and captured on plates coated with anti-human IgG
Conditions: comparative value, c.f. EPA 93 119 098.7; read-out: Comparative value: IC50 of HL60 cell adhesion to E-selectin-IgG

T1 sequence (P16581 with tags, fused parts or gaps): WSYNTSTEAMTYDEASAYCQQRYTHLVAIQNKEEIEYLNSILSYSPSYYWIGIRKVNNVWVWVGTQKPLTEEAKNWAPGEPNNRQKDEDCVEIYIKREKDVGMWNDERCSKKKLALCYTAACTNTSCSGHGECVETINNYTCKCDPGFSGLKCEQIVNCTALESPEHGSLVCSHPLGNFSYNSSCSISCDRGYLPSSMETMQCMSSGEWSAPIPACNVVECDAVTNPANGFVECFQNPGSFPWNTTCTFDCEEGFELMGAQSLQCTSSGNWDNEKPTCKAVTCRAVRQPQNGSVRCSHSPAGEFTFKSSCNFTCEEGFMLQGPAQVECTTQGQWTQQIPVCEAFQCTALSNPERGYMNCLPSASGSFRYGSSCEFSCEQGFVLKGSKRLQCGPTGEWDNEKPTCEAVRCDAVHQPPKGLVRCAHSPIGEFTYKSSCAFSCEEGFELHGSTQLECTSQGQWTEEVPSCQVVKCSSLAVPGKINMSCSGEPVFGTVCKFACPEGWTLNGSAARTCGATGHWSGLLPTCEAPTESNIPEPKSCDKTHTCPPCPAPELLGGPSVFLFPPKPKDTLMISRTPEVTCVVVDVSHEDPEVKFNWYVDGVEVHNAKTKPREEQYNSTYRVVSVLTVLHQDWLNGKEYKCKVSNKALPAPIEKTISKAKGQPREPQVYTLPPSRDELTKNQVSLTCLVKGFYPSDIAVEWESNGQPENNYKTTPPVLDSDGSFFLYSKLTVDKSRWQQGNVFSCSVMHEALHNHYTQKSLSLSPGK

For `CC(=O)NC1C(O)CC(OC2C(O)C(CO)OC(OC3C(CO)OC(OCCCCCCN)C(NC(C)=O)C3OC3OC(C)C(O)C(O)C3O)C2O)(C(=O)O)OC1C(O)C(O)CO` (stereo not shown) [Sialyl-Le^x—O(CH2)6NH2], the IC50 is given as 1 mM.
